Source: patent US11078202B2, “β-lactamase inhibitor and use thereof” (priority 2018, dated 2021)
Structures can show the parent of a compound that is named as a salt.

Key:
Type in all cases: cell-based
[1] = system: Acinetobacter baumannii XNWB 0007; assay: MIC assay of test compounds combined with ceftazidime (8 μg/mL); conditions: ceftazidime 8 μg/mL fixed
Outline: (§1)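 MIC determined by CLSI-guided broth microdilution in CAMHB after 16-20 h at 35±2 °C, with growth and sterile control wells. Test compound series co-dosed with fixed-level ceftazidime or imipenem; inoculum from TSA-grown colonies, adjusted to OD600 0.1-0.15 then diluted 300-fold.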

[2] = system: Klebsiella pneumoniae XNWB 0001; assay: as above; conditions: ceftazidime 8 μg/mL fixed
Outline: as §1

[3] = system: Klebsiella pneumoniae XNWB 0002; assay: as above; conditions: ceftazidime 8 μg/mL fixed
Outline: as §1

[4] = system: Klebsiella pneumoniae XNWB 0003; assay: as above; conditions: ceftazidime 8 μg/mL fixed
Outline: as §1

[5] = system: Klebsiella pneumoniae XNWB 0004; assay: as above; conditions: ceftazidime 8 μg/mL fixed
Outline: as §1

[6] = system: Klebsiella pneumoniae XNWB 0005; assay: as above; conditions: ceftazidime 8 μg/mL fixed
Outline: as §1

[7] = system: Klebsiella pneumoniae XNWB 0006; assay: as above; conditions: ceftazidime 8 μg/mL fixed
Outline: as §1

[8] = system: Pseudomonas aeruginosa XNWB 0008; assay: as above; conditions: ceftazidime 8 μg/mL fixed
Outline: as §1

[9] = system: Acinetobacter baumannii XNWB 0007; assay: MIC assay of test compounds combined with imipenem (4 μg/mL); conditions: imipenem 4 μg/mL fixed
Outline: as §1

[10] = system: Klebsiella pneumoniae XNWB 0001; assay: as above; conditions: imipenem 4 μg/mL fixed
Outline: as §1

[11] = system: Klebsiella pneumoniae XNWB 0002; assay: as above; conditions: imipenem 4 μg/mL fixed
Outline: as §1

[12] = system: Klebsiella pneumoniae XNWB 0003; assay: as above; conditions: imipenem 4 μg/mL fixed
Outline: as §1

[13] = system: Klebsiella pneumoniae XNWB 0004; assay: as above; conditions: imipenem 4 μg/mL fixed
Outline: as §1

[14] = system: Klebsiella pneumoniae XNWB 0005; assay: as above; conditions: imipenem 4 μg/mL fixed
Outline: as §1

[15] = system: Klebsiella pneumoniae XNWB 0006; assay: as above; conditions: imipenem 4 μg/mL fixed
Outline: as §1

[16] = system: Pseudomonas aeruginosa XNWB 0008; assay: as above; conditions: imipenem 4 μg/mL fixed
Outline: as §1

SMILES | The minimum concentration of test compounds combined with ceftazidime (8 μg/mL) for bacteriostasis [1] | The minimum concentration of test compounds combined with ceftazidime (8 μg/mL) for bacteriostasis [2] | The minimum concentration of test compounds combined with ceftazidime (8 μg/mL) for bacteriostasis [3] | The minimum concentration of test compounds combined with ceftazidime (8 μg/mL) for bacteriostasis [4] | The minimum concentration of test compounds combined with ceftazidime (8 μg/mL) for bacteriostasis [5] | The minimum concentration of test compounds combined with ceftazidime (8 μg/mL) for bacteriostasis [6] | The minimum concentration of test compounds combined with ceftazidime (8 μg/mL) for bacteriostasis [7] | The minimum concentration of test compounds combined with ceftazidime (8 μg/mL) for bacteriostasis [8] | The minimum concentration of test compounds combined with imipenem (4 μg/mL) for bacteriostasis [9] | The minimum concentration of test compounds combined with imipenem (4 μg/mL) for bacteriostasis [10] | The minimum concentration of test compounds combined with imipenem (4 μg/mL) for bacteriostasis [11] | The minimum concentration of test compounds combined with imipenem (4 μg/mL) for bacteriostasis [12] | The minimum concentration of test compounds combined with imipenem (4 μg/mL) for bacteriostasis [13] | The minimum concentration of test compounds combined with imipenem (4 μg/mL) for bacteriostasis [14] | The minimum concentration of test compounds combined with imipenem (4 μg/mL) for bacteriostasis [15] | The minimum concentration of test compounds combined with imipenem (4 μg/mL) for bacteriostasis [16]
N=C(N)NCC(O)c1nnc([C@@H]2CC3(CC3)[C@@H]3CN2C(=O)N3OS(=O)(=O)O)o1 (stereo partly drawn) [Example 10, (1R,4S)-4-(5-(2-guanidyl-1-hydroxyethyl)-1,3,4-oxadiazol-2-yl)-6-oxo-5,7-diazaspiro [bicyclo[3.2.1]octane-2,1′-cyclopropan]-7-yl sulfate] | C (C: 16-128 μg/mL) | A (A: <8 μg/mL) | A (A: <8 μg/mL) | A (A: <8 μg/mL) | A (A: <8 μg/mL) | A (A: <8 μg/mL) | A (A: <8 μg/mL) | B (B: 8-16 μg/mL) | A (A: <8 μg/mL) | A (A: <8 μg/mL) | A (A: <8 μg/mL) | A (A: <8 μg/mL) | A (A: <8 μg/mL) | A (A: <8 μg/mL) | A (A: <8 μg/mL) | A (A: <8 μg/mL)
CN(CCc1cc([C@@H]2CC3(CC3)[C@@H]3CN2C(=O)N3OS(=O)(=O)O)no1)C(=N)N [Example 37, (1R,4S)-4-(5-(2-(1-methylguanidino)ethyl)isoxazol-3-yl)-6-oxo-5,7-diazaspiro[bicycle [3.2.1]octane-2,1′-cyclopropan]-7-yl sulfate] | C (C: 16-128 μg/mL) | A (A: <8 μg/mL) | A (A: <8 μg/mL) | B (B: 8-16 μg/mL) | B (B: 8-16 μg/mL) | A (A: <8 μg/mL) | A (A: <8 μg/mL) | C (C: 16-128 μg/mL) | C (C: 16-128 μg/mL) | A (A: <8 μg/mL) | A (A: <8 μg/mL) | A (A: <8 μg/mL) | A (A: <8 μg/mL) | A (A: <8 μg/mL) | A (A: <8 μg/mL) | B (B: 8-16 μg/mL)
CNCCc1nnc([C@@H]2CC3(CC3)[C@@H]3CN2C(=O)N3OS(=O)(=O)O)o1 [Example 24, (1R,4S)-4-(5-(2-(methylamino)ethyl)-1,3,4-oxadiazol-2-yl)-6-oxo-5,7-diazaspiro[bicyclo[3.2.1]octane-2,1′-cyclopropan]-7-yl sulfate] | C (C: 16-128 μg/mL) | A (A: <8 μg/mL) | A (A: <8 μg/mL) | A (A: <8 μg/mL) | A (A: <8 μg/mL) | A (A: <8 μg/mL) | A (A: <8 μg/mL) | C (C: 16-128 μg/mL) | A (A: <8 μg/mL) | A (A: <8 μg/mL) | A (A: <8 μg/mL) | A (A: <8 μg/mL) | A (A: <8 μg/mL) | A (A: <8 μg/mL) | A (A: <8 μg/mL) | B (B: 8-16 μg/mL)
N=C(N)NCc1cc([C@@H]2CC3(CC3)[C@@H]3CN2C(=O)N3OS(=O)(=O)O)no1 [Example 34, (1R,4S)-4-(5-(guanidinomethyl)isoxazol-3-yl)-6-oxo-5,7-diazaspiro[bicyclo[3.2.1]octane-2,1′-cyclopropan]-7-yl sulfate] | C (C: 16-128 μg/mL) | A (A: <8 μg/mL) | A (A: <8 μg/mL) | A (A: <8 μg/mL) | B (B: 8-16 μg/mL) | B (B: 8-16 μg/mL) | A (A: <8 μg/mL) | C (C: 16-128 μg/mL) | B (B: 8-16 μg/mL) | A (A: <8 μg/mL) | A (A: <8 μg/mL) | A (A: <8 μg/mL) | A (A: <8 μg/mL) | A (A: <8 μg/mL) | A (A: <8 μg/mL) | B (B: 8-16 μg/mL)
N=C1NCC(c2nnc([C@@H]3CC4(CC4)[C@@H]4CN3C(=O)N4OS(=O)(=O)O)o2)N1 (stereo partly drawn) [Example 8, (1R,4S)-4-(5-(2-iminoimidazolidin-4-yl)-1,3,4-oxadiazol-2-yl)-6-oxo-5,7-diazaspiro [bicyclo[3.2.1]octane-2,1′-cyclopropan]-7-yl sulfate] | C (C: 16-128 μg/mL) | A (A: <8 μg/mL) | A (A: <8 μg/mL) | A (A: <8 μg/mL) | A (A: <8 μg/mL) | A (A: <8 μg/mL) | A (A: <8 μg/mL) | B (B: 8-16 μg/mL) | A (A: <8 μg/mL) | A (A: <8 μg/mL) | A (A: <8 μg/mL) | A (A: <8 μg/mL) | A (A: <8 μg/mL) | A (A: <8 μg/mL) | A (A: <8 μg/mL) | A (A: <8 μg/mL)
CNCc1cc([C@@H]2CC3(CC3)[C@@H]3CN2C(=O)N3OS(=O)(=O)O)no1 [Example 32] | C (C: 16-128 μg/mL) | B (B: 8-16 μg/mL) | A (A: <8 μg/mL) | B (B: 8-16 μg/mL) | C (C: 16-128 μg/mL) | C (C: 16-128 μg/mL) | B (B: 8-16 μg/mL) | C (C: 16-128 μg/mL) | C (C: 16-128 μg/mL) | A (A: <8 μg/mL) | A (A: <8 μg/mL) | A (A: <8 μg/mL) | A (A: <8 μg/mL) | A (A: <8 μg/mL) | A (A: <8 μg/mL) | C (C: 16-128 μg/mL)
